From patent publication US20210177828A1, “TAM FAMILY KINASE /AND CSF1R KINASE INHIBITOR AND USE THEREOF” (Nanjing Transthera Biosciences Co., Ltd., priority 2018, published 2021)
pIC50: −log10 of the molar value.

What was measured:
Type in all cases: biochemical
Axl (h) = molecular target: T1, Axl (h) (Homo sapiens, UniProt P30530); assay: Enzymatic activity assay, Axl (h), [γ-33P]-ATP filter assay; conditions: 10 μM ATP, 40 min room temperature; read-out: Inhibitory activity IC50 Axl(h)
T1 sequence (P30530 26-894): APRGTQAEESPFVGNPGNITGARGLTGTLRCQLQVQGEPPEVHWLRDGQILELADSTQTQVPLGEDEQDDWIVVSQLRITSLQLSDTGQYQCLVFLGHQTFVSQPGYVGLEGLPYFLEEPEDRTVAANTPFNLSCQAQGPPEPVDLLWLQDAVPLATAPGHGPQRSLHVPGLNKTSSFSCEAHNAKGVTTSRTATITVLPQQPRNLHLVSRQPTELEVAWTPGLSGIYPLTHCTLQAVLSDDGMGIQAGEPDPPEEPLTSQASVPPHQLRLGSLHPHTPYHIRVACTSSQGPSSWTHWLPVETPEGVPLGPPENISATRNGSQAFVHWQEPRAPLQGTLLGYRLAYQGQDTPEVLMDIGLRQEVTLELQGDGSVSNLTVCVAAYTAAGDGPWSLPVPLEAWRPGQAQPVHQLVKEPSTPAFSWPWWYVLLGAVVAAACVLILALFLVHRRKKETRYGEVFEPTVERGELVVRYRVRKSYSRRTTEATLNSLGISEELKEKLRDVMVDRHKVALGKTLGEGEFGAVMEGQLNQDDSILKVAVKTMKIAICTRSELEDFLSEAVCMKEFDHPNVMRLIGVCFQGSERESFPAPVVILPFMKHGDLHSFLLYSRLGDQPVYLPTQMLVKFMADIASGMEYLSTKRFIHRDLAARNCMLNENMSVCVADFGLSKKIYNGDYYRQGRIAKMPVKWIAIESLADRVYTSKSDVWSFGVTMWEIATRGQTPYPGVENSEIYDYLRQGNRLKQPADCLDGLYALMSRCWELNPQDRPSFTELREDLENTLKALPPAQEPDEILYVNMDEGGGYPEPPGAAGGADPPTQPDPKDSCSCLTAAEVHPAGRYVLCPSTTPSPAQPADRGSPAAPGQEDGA
Experimental: (§1) Compounds were each dissolved in 100% DMSO to prepare stock solutions with a maximum concentration of 500 μM.
(§2) Compound working solutions (50×) were prepared by diluting a compound stock solution to a final concentration of 500, 150, 50, 15, 5, 1.5, 0.5, 0.15 and 0.05 μM.
An enzyme solution with a final concentration of 1.7 nM was prepared by dissolving Axl (h) enzyme in a mixture of 8 mM MOPS (pH 7.0), 0.2 mM EDTA and 250 μM KKSRGDYMTMQIG. A Mg/ATP mixture of 10 mM magnesium acetate and 10 μM [γ-^33P]-ATP was used to activate the enzymatic reaction.
(§3) A compound working solution was added to a 384-well plate, with final concentrations of 10,000, 3,000, 1,000, 300, 100, 30, 10, 3 and 1 nM, and then different enzymatic reaction solutions prepared according to the above conditions were added. The reaction solutions were incubated at room temperature for 40 min, and then 0.5% phosphoric acid solutions were added to terminate the reaction. 10 μL of the reaction solution was added dropwise to P30 filter paper, washed 4 times with a 0.425% phosphoric acid solution and once with methanol, and then placed in a scintillation counter for detection. Gray analysis was performed on the results with Image J software, and IC50 values were calculated with GraphPad 5.0 software.

Tyro-3 (h) = molecular target: T2, Tyro-3 (h) (Homo sapiens, UniProt Q06418); assay: Enzymatic activity assay, Tyro-3 (h), [γ-33P]-ATP filter assay; conditions: 10 μM ATP, 40 min room temperature; read-out: Inhibitory activity IC50 Tyro-3(h)
T2 sequence (Q06418 41-890): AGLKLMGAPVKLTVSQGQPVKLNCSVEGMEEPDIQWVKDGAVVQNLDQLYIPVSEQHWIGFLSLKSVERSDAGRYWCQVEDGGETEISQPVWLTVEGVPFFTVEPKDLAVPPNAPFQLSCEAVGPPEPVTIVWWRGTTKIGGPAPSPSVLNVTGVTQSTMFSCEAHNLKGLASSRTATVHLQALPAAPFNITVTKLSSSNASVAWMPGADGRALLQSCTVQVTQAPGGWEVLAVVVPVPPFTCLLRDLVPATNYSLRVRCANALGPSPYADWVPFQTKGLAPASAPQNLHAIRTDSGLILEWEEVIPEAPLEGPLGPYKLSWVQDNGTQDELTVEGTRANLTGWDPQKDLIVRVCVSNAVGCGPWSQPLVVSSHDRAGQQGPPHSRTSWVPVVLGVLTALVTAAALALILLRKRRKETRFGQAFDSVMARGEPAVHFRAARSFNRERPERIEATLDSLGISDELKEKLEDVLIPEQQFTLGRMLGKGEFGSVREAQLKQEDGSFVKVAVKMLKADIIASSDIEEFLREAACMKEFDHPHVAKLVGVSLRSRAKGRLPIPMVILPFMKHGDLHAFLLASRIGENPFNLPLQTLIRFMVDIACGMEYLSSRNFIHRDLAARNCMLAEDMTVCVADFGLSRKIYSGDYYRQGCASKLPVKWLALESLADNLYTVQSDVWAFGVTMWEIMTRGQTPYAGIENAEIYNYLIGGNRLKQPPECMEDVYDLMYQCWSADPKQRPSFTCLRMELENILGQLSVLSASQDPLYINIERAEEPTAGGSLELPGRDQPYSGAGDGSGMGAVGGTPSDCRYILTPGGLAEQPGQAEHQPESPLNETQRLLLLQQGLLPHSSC
Experimental: as §1, §2
An enzyme solution with a final concentration of 38 nM was prepared by dissolving Tyro3 (h) enzyme in a mixture of 8 mM MOPS (pH 7.0), 0.2 mM EDTA, 1 mM MnCl2 and 250 μM KVEKIGEGTYGVVYK. A Mg/ATP mixture of 10 mM magnesium acetate and 10 μM [γ-^33P]-ATP was used to activate the enzymatic reaction.
as §3

Mer (h) = molecular target: T3, Mer (h) (Homo sapiens, UniProt Q12866); assay: Enzymatic activity assay, Mer (h), [γ-33P]-ATP filter assay; conditions: 10 μM ATP, 40 min room temperature; read-out: Inhibitory activity IC50 Mer(h)
T3 sequence (Q12866 21-999): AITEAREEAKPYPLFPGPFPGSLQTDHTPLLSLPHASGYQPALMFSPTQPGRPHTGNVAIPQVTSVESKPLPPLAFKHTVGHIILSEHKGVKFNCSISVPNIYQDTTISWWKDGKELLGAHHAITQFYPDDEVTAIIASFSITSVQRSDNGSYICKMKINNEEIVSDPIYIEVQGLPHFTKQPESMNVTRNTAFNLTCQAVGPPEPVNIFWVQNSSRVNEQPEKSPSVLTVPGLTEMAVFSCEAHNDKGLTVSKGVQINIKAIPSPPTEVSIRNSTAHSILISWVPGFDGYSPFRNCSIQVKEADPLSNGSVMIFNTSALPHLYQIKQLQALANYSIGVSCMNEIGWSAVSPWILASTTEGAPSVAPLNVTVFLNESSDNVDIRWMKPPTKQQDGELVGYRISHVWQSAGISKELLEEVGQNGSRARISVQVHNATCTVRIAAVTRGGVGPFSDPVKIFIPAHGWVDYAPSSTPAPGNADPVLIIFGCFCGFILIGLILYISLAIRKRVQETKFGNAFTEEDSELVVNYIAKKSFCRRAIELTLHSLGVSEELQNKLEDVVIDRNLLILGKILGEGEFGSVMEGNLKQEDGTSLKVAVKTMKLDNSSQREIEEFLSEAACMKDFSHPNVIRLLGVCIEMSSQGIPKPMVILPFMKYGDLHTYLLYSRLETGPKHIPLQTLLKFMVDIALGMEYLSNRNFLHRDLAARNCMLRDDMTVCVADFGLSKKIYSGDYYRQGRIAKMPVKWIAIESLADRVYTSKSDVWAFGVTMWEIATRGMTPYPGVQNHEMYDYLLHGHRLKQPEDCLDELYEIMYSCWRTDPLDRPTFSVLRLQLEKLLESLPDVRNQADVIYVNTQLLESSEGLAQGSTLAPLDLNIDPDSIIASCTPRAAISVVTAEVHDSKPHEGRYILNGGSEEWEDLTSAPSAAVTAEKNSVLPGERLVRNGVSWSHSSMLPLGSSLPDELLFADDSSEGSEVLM
Experimental: as §1, §2
An enzyme solution with a final concentration of 3.1 nM was prepared by dissolving Mer (h) enzyme in a mixture of 8 mM MOPS (pH 7.0), 0.2 mM EDTA, 30 mM NaCl and 250 μM GGMEDIYFEFMGGKKK. A Mg/ATP mixture of 10 mM magnesium acetate and 10 μM [γ-^33P]-ATP was used to activate the enzymatic reaction.
as §3

| pIC50 (Axl (h)) | pIC50 (Tyro-3 (h)) | pIC50 (Mer (h)) | SMILES |
| --- | --- | --- | --- |
| 7.24 | – | – | COc1ccc(-c2cnc(N)c(-c3ccc(NC(=O)c4cn(CC5CCOCC5)c(=O)n(-c5ccc(C)cc5)c4=O)cc3)c2)cc1OC [Compound 37, N-(4-(2-amino-5-(3,4-dimethoxyphenyl)pyridin-3-yl)phenyl)-2,4-dioxo-1-((tetrahydro-2H-pyran-4-yl)methyl)-3-(p-tolyl)-1,2,3,4-tetrahydropyrimidin-5-carboxamide] |
| 7.36 | – | – | COc1ccc(-c2cnc(N)c(-c3ccc(NC(=O)c4cc(-c5ccc(C)cc5)cn(CC5CCOCC5)c4=O)cc3)c2)cc1OC [Compound 35, N-(4-(2-amino-5-(3,4-dimethoxyphenyl)pyridin-3-yl)phenyl)-2-oxo-1-((tetrahydro-2H-pyran-4-yl)methyl)-5-(p-tolyl)-1,2-dihydropyridin-3-carboxamide] |
| 7.72 | 7.54 | 9.00 | COc1cc2nccc(Oc3ccc(NC(=O)c4nn(CC5CCSCC5)cc(-c5ccc(C)cc5)c4=O)nc3)c2cc1OC [Compound 21, N-(5-((6,7-dimethoxyquinolin-4-yl)oxy)pyridin-2-yl)-4-oxo-1-((tetrahydro-2H-thiopyran-4-yl)methyl)-5-(p-tolyl)-1,4-dihydropyridazin-3-carboxamide] |
| 7.66 | – | – | COc1cc2nccc(O[C@H]3CC[C@@H](NC(=O)c4cn(CC5CCOCC5)cc(-c5ccc(C)cc5)c4=O)CC3)c2cc1OC [Compound 38, N-((cis)-4-((6,7-dimethoxyquinolin-4-yl)oxy)cyclohexyl)-4-oxo-1-((tetrahydro-2H-pyran-4-yl)methyl)-5-(p-tolyl)-1,4-dihydropyridin-3-carboxamide] |
| 8.05 | 7.48 | 8.10 | COc1cc2nccc(Oc3cnc(NC(=O)c4nn(CC5CCSCC5)cc(-c5ccc(C)cc5)c4=O)nc3)c2cc1OC [Compound 23, N-(5-((6,7-dimethoxyquinolin-4-yl)oxy)pyrimidin-2-yl)-4-oxo-1-((tetrahydro-2H-thiopyran-4-yl)methyl)-5-(p-tolyl)-1,4-dihydropyridazin-3-carboxamide] |
| 7.80 | 6.99 | 8.30 | COc1cc2nccc(Oc3cnc(NC(=O)c4cn(CC5CCSCC5)cc(-c5ccc(C)cc5)c4=O)nc3)c2cc1OC [Compound 22, N-(5-((6,7-dimethoxyquinolin-4-yl)oxy)pyrimidin-2-yl)-4-oxo-1-((tetrahydro-2H-thiopyran-4-yl)methyl)-5-(p-tolyl)-1,4-dihydropyridin-3-carboxamide] |
